Measured values reported in patent US6365350B1, “Method of DNA sequencing” (The Institute of Physical and Chemical Research, priority 1997, dated 2002).
Entries after “also recorded” stand apart in the source; their conditions may differ.

Assays:
[1] = biological target: T1, T7 RNA polymerase (Gibco BRL) (Escherichia phage T7, UniProt P00573); experiment: Examination of 3′-deoxyterminators, termination pattern (Reference Example 8); format: biochemical; conditions: terminator 10 μM, 37° C., 30 minutes, FIGS. 42A and 42B
T1 construct: purchased Gibco BRL
T1 sequence (P00573 whole entry): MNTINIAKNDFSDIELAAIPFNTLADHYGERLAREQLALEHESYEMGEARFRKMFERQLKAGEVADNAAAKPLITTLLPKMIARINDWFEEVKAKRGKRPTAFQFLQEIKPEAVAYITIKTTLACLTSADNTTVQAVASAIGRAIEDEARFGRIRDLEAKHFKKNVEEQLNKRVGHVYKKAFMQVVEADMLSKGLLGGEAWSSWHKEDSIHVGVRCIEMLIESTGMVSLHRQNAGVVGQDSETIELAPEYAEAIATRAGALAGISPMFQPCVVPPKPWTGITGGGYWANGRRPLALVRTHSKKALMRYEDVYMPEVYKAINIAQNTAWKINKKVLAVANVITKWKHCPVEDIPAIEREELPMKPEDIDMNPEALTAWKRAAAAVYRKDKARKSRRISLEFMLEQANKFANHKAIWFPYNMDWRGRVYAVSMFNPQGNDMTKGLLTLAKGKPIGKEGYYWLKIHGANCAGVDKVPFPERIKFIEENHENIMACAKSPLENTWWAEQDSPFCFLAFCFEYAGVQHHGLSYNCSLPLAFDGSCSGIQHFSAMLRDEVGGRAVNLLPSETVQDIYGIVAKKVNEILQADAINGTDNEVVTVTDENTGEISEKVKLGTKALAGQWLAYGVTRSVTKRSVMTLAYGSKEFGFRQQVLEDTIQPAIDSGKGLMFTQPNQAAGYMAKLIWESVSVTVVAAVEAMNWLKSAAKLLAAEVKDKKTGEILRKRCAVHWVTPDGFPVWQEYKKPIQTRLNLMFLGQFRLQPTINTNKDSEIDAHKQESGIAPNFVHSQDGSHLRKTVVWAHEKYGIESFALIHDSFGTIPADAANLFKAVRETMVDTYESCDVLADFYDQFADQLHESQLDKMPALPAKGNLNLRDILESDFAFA
Procedure: PCR was performed by using the following materials (96° C. for one minute, 55° C. for 30 seconds, and 72° C. for one minute for one cycle, and 96° C. for 30 seconds, 55° C. for 30 seconds, 72° C. for one minute for 24 cycles), and the resulting PCR product (amplified DNA fragment of human thyroid stimulating hormone (TSH) β-subunit) was used as a template DNA.
Each material in a predetermined amount was added to a sample tube, filled up to a total volume of 10 μl with EXTaq buffer (Takara Shuzo), and used as a PCR mixture.
The template DNA (10 ng) was added to a sample tube containing each of the terminators, guanosine-5′-triphosphate (rGTP), uridine-5′-triphosphate (rUTP), adenosine-5′-triphosphate (rATP), and cytidine-5′-triphosphate (rCTP), MgCl2, spermidine-(HCl)3, dithiothreitol (DTT), Tris/HCl (pH 7.5), yeast inorganic pyrophosphatase (PPase) and T7 RNA polymerase in such amounts as their final concentrations should be as follows, filled up to a total amount of 10 μl with distilled water, and used as a sample.
After 30 minutes incubation of the sample at 37° C., the terminators not incorporated were removed by gel filtration using a Sephadex G25 column (Pharmacia), and the precipitates were collected by centrifugal separation. […] After cooling, 2 μl of the solution was applied to 4% sequencing gel, and electrophoresed on ABI377 fluorescence automatic sequencer (ABI). […]

[2] = tested on: 3′-dATP; experiment: Inhibition of [α-32P]UTP incorporation by 3′-dATP in transcription reaction (relative activity for 3′-dATP); format: biochemical; conditions: relative value of inhibition degree of [α-32P]UTP incorporation by 100 μM 3′-dATP; wild type normalized to 1.000; 37° C., 60 minutes
[3] = tested on: 3′-dATP, 3′-dGTP, 3′-dCTP, 3′-dUTP and derivatives thereof; conditions: for ability for incorporating 3′-dATP, 3′-dGTP, 3′-dCTP, 3′-dUTP and derivatives thereof: compared with wild type T7 RNA polymerase
Procedure: The T7 RNA polymerases introduced with mutations were purified, and their abilities of promoter sequence specific RNA synthesis and incorporation of ribonucleoside 5′-triphosphates including ATP, GTP, CTP, UTP and derivatives thereof, as well as 3′-DATP, 3′-dGTP, 3′-dCTP, 3′-dUTP and derivatives thereof were compared with those of wild type T7 RNA polymerase.
For two kinds of reaction mixture (with or without 3′-DATP, final concentration was 100 μM), the reaction was performed at 37° C. for 60 minutes. The whole reaction mixture was spotted on DE81 paper (Whatman), washed three times with phosphate buffer, and dried. The DE81 paper was placed into a scintillation vial, and radioactivity was measured using a scintillation counter (Beckman) for each reaction. Degree of inhibition of the [α-^32P]UTP incorporation was calculated by comparing the values obtained with and without 3′-dATP based on the measured radioactivity.

[4] = tested on: DNA containing T7 promoter; conditions: in vitro, compared with wild type T7 RNA polymerase
Procedure: Subsequent steps for purification of enzyme should be performed at a temperature lower than room temperature, preferably 0-5° C. unless otherwise indicated. The E. coli cells were washed with 10 times relative to the cell weight of a washing buffer (20 mM Tris-HCl, pH 8.1, 130 mM NaCl, 2 mM EDTANa2 at 25° C.), centrifuged again (5,000×g, 4° C., 10 minutes), suspended in 10 times in volume of a sonication buffer [50 mM Tris-HCl, pH 8.1, 100 mM NaCl, 0.1 mM EDTANa2, 5 mM dithiothreitol (DTT), 0.1 mM benzamidine, 30 μg/ml phenylmethylsulfonyl fluoride (PMSF), 10 μg/ml bacitracin], and sonicated by using Sonifier 450 (Branson) at 80W for more than 15 minutes to destroy the cells and reduce the viscosity of the cells. Then, the cell suspension is centrifuged at 12,000×g and 4° C. for ten minutes to remove the cell debris. 10% streptomycin sulfate was slowly added dropwise to the resulting supernatant to a final concentration of 2.0% with stirring, and stirring was further continued for 30 minutes. The supernatant was centrifuged at 12,000×g and 4° C. for ten minutes to remove precipitates, and slowly added with ammonium sulfate powder with stirring to form precipitates. In this case, precipitates were first collected by 30% saturation of ammonium sulfate (30% ammonium sulfate precipitation), and the resulting supernatant was further added with ammonium sulfate to 60% saturation with stirring to form precipitates again (30-60% ammonium sulfate precipitation). The supernatant was added again with ammonium sulfate powder to 90% ammonium sulfate saturation, and stirred at 4° C. for 1 hour, and the precipitates were collected by centrifugation. […] The.30′60% ammonium sulfate fraction was suspended in a small amount of column buffer (20 mM KPO4, pH 7.7, 100 mM NaCl, 1 mM DTT, 30 μg/ml PMSF), and desalted by dialysis against 500 ml of the same buffer for 16hours. The dialysate was applied on a heparin-Sepharose column of 5 ml volume (Pharmacia Biotech). Subsequently, the column was washed with the same buffer until any material absorbing ultraviolet ray at 280 nm disappeared, and eluted with a linear gradient of 0.1 M to 0.64 M NaCl in the same buffer of about 40 times volume of the column volume. The eluent was collected in test tubes as fractions of a suitable volume, and immediately subjected to SDS-acrylamide gel electrophoresis for protein analysis to identify fractions containing proteins around a molecular weight considered to be of the objective T7 RNA polymerase. […] The fractions containing the protein were collected, and desalted by dialysis against about 1 liter of the column buffer (20 mM KPO4, pH 7.7, 100 mM NaCl, 1 mM DTT, 30 μg/ml PMSF) for 16 hours. The fractions desalted by dialysis were applied to a Q-Sepharose column (Pharmacia Biotech) of 5 ml volume that preliminarily equilibrated with the same buffer, and the column was washed with the same buffer until any material absorbing ultraviolet ray at 280 nm disappeared, and eluted with a linear gradient of 0.1 M to 0.64 M NaCl in the same buffer of about 40 times volume of the column volume. The eluent was collected in test tubes as fractions of a suitable volume, and immediately subjected to SDS-acrylamide gel electrophoresis for protein analysis to identify fractions containing proteins around a molecular weight considered to be of the objective T7 RNA polymerase. […] The fractions containing the protein were collected, dialyzed against 500 ml of storage buffer (50% glycerol, 20 mM KPO4, pH 7.7, 100 mM NaCl, 1 mM DTT, 30 μg/ml PMSF) for 16 hours, and stored at −20° C. until use. In vitro RNA synthesis activity and activity of the contaminated ribonuclease of this sample were examined.

[5] = tested on: plasmid vector pBluescriptKS(+) having T7 promoter; experiment: Sequencing reaction by the dye terminator method, n=1 terminators (Example 2); conditions: four dye terminators n=1, 25 units polymerase, 37° C., 1 hour
Procedure: Sequencing reaction by the dye terminator method was performed utilizing the purified mutant T7 RNA polymerases F644Y and L665P/F667Y, and the wild type T7 RNA polymerase as follows for comparison.
More specifically, the reaction was performed in a total reaction volume of 10 μl containing a plasmid vector pBluescriptKS(+) having T7 promoter linealized by the reaction with a restriction endonuclease PvuII or ScaI as a template, 250 μM of R6G-3′-dATP(n=1), 25 μM of R110-3′-dGTP(n=1), 150 μM of XR-3′-dCTP(n=1), 50 μM of TMR-3′-dUTP(n=1), which were the dye terminators synthesized in the above Synthesis Examples 49, 52, 46 and 43 respectively, as derivatives of 3′-dNTP, 500 μM of GTP and UTP, 250 μM of ATP and CTP, 8 mM of MgCl2, 2 mM of spermidine-(HCl)3, 5 mM of DTT, 40 mM of Tris/HCl pH 8.0 (BRL, Gibco) and 25 units of wild type T7 RNA polymerase (BRL, Gibco or Nippon Gene) or the mutant T7 RNA polymerase F644Y at 37° C. for 1 hour. Then, to remove the unreacted dye terminators remained in the reaction product, the transcription product was purified by gel filtration using a Sephadex G-50 column (Pharmacia Biotech), and the purification product was evaporated to dryness using a centrifugal evaporator.
The dried reaction product was dissolved in 6 μl of formamide/EDTA/Blue dextran loading buffer according to the instruction manual Ver.1.0 of ABI PRISM 377 DNA Sequencing System available from Perkin-Elmer Japan, and 2 μl of the solution was analyzed by ABI 377 DNA Sequencer and an analysis program using denatured gel for sequencing analysis which contained 6 M urea/4% Long Ranger™ acrylamide solution (FMC).

[6] = tested on: XR-3′dCTP(n=1); experiment: In vitro transcription with dye terminator XR-3′dCTP(n=1), sequence ladder (Example 1); format: biochemical; conditions: for incorporation efficiency for 3′-dCTP derivatives: peak intensities of sequence ladder vs wild type, FIGS. 30 and 31
Procedure: In vitro transcription reaction was performed by, for example, a partially modified version of the method of Melton, D. A., [Nucleic Acids Res., 12:7035-7056 (1984)].

[7] = biological target: T7 RNA polymerase (Escherichia phage T7, UniProt P00573); experiment: Incorporation rate of 3′-dNTP measured with radioactive [α-32P]3′-dNTPs; format: biochemical
Sequence of T7 RNA polymerase (P00573 whole entry): as above
Procedure: Further, incorporation rate of 3′-deoxyribonucleotides is different depending on the kind of RNA polymerase, and this should be considered for the selection of the combination. The incorporation rate of 3′-dNTP by T7 RNA polymerase was measured by using radioactive [α-^32p]3′-dNTPs.

[8] = 150 μM XR-3′dCTP(n=1), 25 units polymerase, 37° C., 1 hour

Compound	Relative activity of RNA polymerase for 3′-dATP [2]	ability for incorporating 3′-dATP, 3′-dGTP, 3′-dCTP, 3′-dUTP and derivatives thereof [3]	RNA synthesis activity [4]	also measured
TMR-labeled 3′-deoxyuridine-5′-triphosphate [TMR-Allyl-3′dUTP(n4)]	–	–	–	termination pattern / incorporation efficiency [1]: incorporated as efficiently as TMR-3′dUTP(n4)
F782Y: mutant T7 RNA polymerase in which F782 was replaced with Y	1.173	slightly improved ability	maintained RNA synthesis activity	–
F644Y/L665P: mutant T7 RNA polymerase with mutations F644Y and L665P	5.130	marked improvement; also recorded: comparable to that of the F644Y mutant	maintained sufficient RNA synthesis activity	–
Wild type: wild type T7 RNA polymerase, 883 amino acid residues [reference compound]	1.000	–	sufficient RNA synthesis activity	sequence reading [5]: almost impossible; also recorded: sequencing was not performed correctly
L665P/F667Y: mutant T7 RNA polymerase with mutations L665P and F667Y; labelled F667Y in FIGS. 29, 31, 32	4.711	marked improvement; also recorded: markedly improved ability	maintained sufficient RNA synthesis activity	incorporation efficiency for 3′-dCTP derivatives [6]: improved the incorporation efficiency; bias of incorporation observed in the wild type [3]: markedly reduced; peak intensity in comparison with the wild type T7 RNA polymerase [5]: higher peak intensity with less fluctuation; sequence reading [5]: sequence reading was possible
TMR-labeled 3′-deoxyuridine-5′-triphosphate [TMR-3′dUTP(n4)]	–	–	–	termination pattern / incorporation efficiency [1]: difference is not recognized
Y639F: Y639F mutant of T7 RNA polymerase, at a location corresponding to Y526 of T7 DNA polymerase, described in the literature [reference compound]	0.930	no improvement	maintained RNA synthesis activity	–
O=c1ccn([C@@H]2O[C@H](COP(=O)(O)OP(=O)(O)OP(=O)(O)O)C[C@H]2O)c(=O)[nH]1 [3′-dUTP]	–	–	–	order of incorporation rate of 3′-dNTP by T7 RNA polymerase [7]: 3′-dGTP>3′-dATP, 3′-dUTP>3′-dCTP
Nc1ccn([C@@H]2O[C@H](COP(=O)(O)OP(=O)(O)OP(=O)(O)O)C[C@H]2O)c(=O)n1 [3′-dCTP]	–	–	–	order of incorporation rate of 3′-dNTP by T7 RNA polymerase [7]: 3′-dGTP>3′-dATP, 3′-dUTP>3′-dCTP
Nc1ncnc2c1ncn2[C@@H]1O[C@H](COP(=O)(O)OP(=O)(O)OP(=O)(O)O)C[C@H]1O [3′-dATP]	–	–	–	order of incorporation rate of 3′-dNTP by T7 RNA polymerase [7]: 3′-dGTP>3′-dATP, 3′-dUTP>3′-dCTP
Nc1nc2c(ncn2[C@@H]2O[C@H](COP(=O)(O)OP(=O)(O)OP(=O)(O)O)C[C@H]2O)c(=O)[nH]1 [3′-dGTP]	–	–	–	order of incorporation rate of 3′-dNTP by T7 RNA polymerase [7]: 3′-dGTP>3′-dATP, 3′-dUTP>3′-dCTP
F646Y: mutant T7 RNA polymerase in which F646 was replaced with Y	0.459	no improvement	maintained RNA synthesis activity	–
F733Y: mutant T7 RNA polymerase in which F733 was replaced with Y	1.075	slightly improved ability	slightly decreased RNA synthesis activity	–
F644Y: mutant T7 RNA polymerase in which F (phenylalanine) residue 644 was replaced with Y (tyrosine)	5.130	marked improvement; also recorded: markedly improved ability	maintained sufficient RNA synthesis activity	sequence ladder length compared with that afforded by the wild type T7 RNA polymerase [6, 8]: 3 times; transcription product length confirmed [6, 8]: about 700 bases; incorporation efficiency for 3′-dCTP derivatives [6]: improved the incorporation efficiency; bias of incorporation observed in the wild type [3]: markedly reduced; peak intensity in comparison with the wild type T7 RNA polymerase [5]: higher peak intensity with less fluctuation; sequence reading [5]: sequence reading was possible
